Measurements reported in patent US20200215233A1, “ANTIMICROBIAL COATING” (Boulos & Cooper Pharmaceuticals Pty Ltd, priority 2017, published 2020).

What was measured:
[1] = test system: methicillin resistant-S. aureus (MRSA) (ATCC 43300); experiment: Determination of the minimum inhibitory concentration (MRSA); assay type: cell-based; settings: Staphylococcus aureus, 24 h at 37° C., lowest concentration at which greater than 90% inhibition of bacterial growth was observed
Protocol: (§1) Three bacterial strains—two Gram-positive bacteria: Staphylococcus aureus (ATCC 29213) (MSSA) and methicillin resistant-S. aureus (MRSA) (ATCC 43300); and a Gram-negative Pseudomonas aeruginosa (ATCC 27853) were used in this study. Bacterial stocks (stored at −80° C. in nutrient broth with 15% glycerol) were streaked onto nutrient agar (Oxoid, Basingstoke, UK) plates for use as the working stock. From the stock an overnight bacterial culture grown in nutrient broth was diluted 1:100 into specific growth media, including tryptic soya broth for S. aureus and Luria-Bertani broth for P. aeruginosa. The final concentration of bacteria was made up to 1×10^5 cfu/mL for the inhibition assays. BCP3 was suspended in respective bacterial media to afford 5 mg/mL suspension. The stock suspension was then twice and ten times diluted to finally obtain concentrations ranging from 8×10^−4-5 mg/mL. Aliquots of 20 μL of each concentration were then added in quadruplicate to wells containing 80 μL of 1×10^5 cfu/mL bacterial solutions in a 96 well plate format for final well concentrations of 1.6×10^−4-1 mg/mL of BCP3. […] After 24 h, 100 μL from each well was transferred into a TOPS 96 well plate (Nunc) and the optical density was measured at 600 nm using a BioTek plate reader. The inhibition of bacterial growth was determined relative to the control (%). […]

[2] = test system: Staphylococcus aureus (ATCC 29213) (MSSA); experiment: Determination of the minimum inhibitory concentration (MSSA); assay type: cell-based; settings: 24 h at 37° C., lowest concentration at which greater than 90% inhibition of bacterial growth was observed
Protocol: as §1

L929 cells = experiment: Determination of minimal BCP3 cytotoxic concentration (MTS assay); assay type: cell-based
Protocol: BCP3 was sterilized via incubation in 80% ethanol in a sterile glass vial for 1 h prior to being vacuum dried at 120° C. for 5 h (0.2 mbar). Subsequently BCP3 was suspended in complete minimum essential medium (MEM, containing 10% (v/v) FBS and 1% (v/v) non-essential amino acids) to afford a 5 mg/mL suspension. The stock suspension was then twice and ten times diluted to finally obtain concentrations ranging from 8×10^−4-5 mg/mL. Aliquots of 20 μL of each concentration were then added in quadruplicate to wells previously seeded with L929 cells containing 80 μL of complete MEM (18,000 cells per well, 16 h) in a 96 well plate format for final well concentrations of 1.6×10^−4-1 mg/mL. Additional controls were added to wells containing pre-seeded cells; medium alone, 5%, and 10% (v/v) dimethylsulfoxide (DMSO, Sigma) in medium. The plate was subsequently incubated for 21 h (37° C., 5% CO2). An 3-(4,5-dimethylthiazol-2-yl)-5(3-carboxymethoxyphenyl)-2-(4-sulfophenyl)-2H-tetrazolium (MTS) assay was then utilized to determine cell viability based on metabolic activity of cells. Stock solutions of 4 mM MTS (Promega) in PBS and 3 mM of phenazine methosulfate (PMS, Sigma) in PBS were used to make up a mixture of MTS and PMS reagent. A working assay reagent solution was made up by addition of 2 mL of MTS and 100 μL of PMS stock solutions per 10 mL of complete medium. Media was removed from the sample and control wells and washed with 120 μL of fresh medium; subsequently 100 μL of the assay reagent solution was added to wells then incubated for 3 h at 37° C., 5% CO2. For colorimetric analysis, plates were read in a BioTek plate reader at wavelengths 490 nm and 655 nm. The difference in readings at the two wavelengths was used to calculate cell attachment compared to controls.

[3] = test system: Pseudomonas aeruginosa (ATCC 27853); experiment: Determination of the minimum inhibitory concentration (P. aeruginosa); assay type: cell-based
Protocol: as §1

[4] = Solubility of BCP3 in water and base; assay type: physicochemical

MIC [1]: 15.6 µg/mL
MIC [2]: 15.6 µg/mL
MIC ([3]; Pseudomonas aeruginosa, ATCC27853, P. aeruginosa, 24 h at 37° C., lowest concentration at which greater than 90% inhibition of bacterial growth was observed): > 1000 µg/mL
solubility in the presence of bases ([4]; in the presence of bases such as NaOH): highly soluble
solubility in water ([4]; water): minimally soluble
SMILES: O=C(O)c1ccc(/C=C/c2cc(/C=C/c3ccc(C(=O)O)cc3)c(/C=C/c3ccc(C(=O)O)cc3)cc2/C=C/c2ccc(C(=O)O)cc2)cc1 [Formula E]
cytotoxicity (L929 cells; L929 cells, up to 1 mg/mL): non-cytotoxic
L929 cell viability (L929 cells; at 1 mg/mL BCP3, 21 h, compared to TOPS control): 85%
L929 cell viability (L929 cells; at all concentrations, 1.6×10^−4-1 mg/mL, 21 h): above 70%
maximum inhibition of P. aeruginosa growth ([3]; at 1 mg/mL BCP3, 24 h): 32%
